In ChEMBL document CHEMBL3875216, “Synthesis of antimicrobial glucosamides as bacterial quorum sensing mechanism inhibitors” (Bioorg Med Chem, 2017):

Experiments:
Pseudomonas aeruginosa [1] = test: Inhibition of LasR-dependent quorum sensing activity in Pseudomonas aeruginosa MH602 harboring GFP-fused […] LasB promoter assessed as inhibition of 3-oxo-dodecanoyl HSL-induced GFP expression at 2 mM measured after 8 hrs by fluorescence assay relative to control
Pseudomonas aeruginosa [2] = test: Growth inhibition of Pseudomonas aeruginosa MH602 at 2 mM after 24 hrs relative to control; settings: MH602, 24 h, read-out: GI
Escherichia coli [3] = test: Inhibition of LuxR-dependent quorum sensing activity in Escherichia coli MT102 harboring pJBA132 assessed as inhibition of OHHL-induced GFP expression at 1 mM measured after 8 hrs by fluorescence assay relative to control
Pseudomonas aeruginosa [4] = test: Growth inhibition of Pseudomonas aeruginosa MH602 at 500 uM after 24 hrs relative to control; settings: MH602, 24 h, read-out: GI
Pseudomonas aeruginosa [5] = test: Growth inhibition of Pseudomonas aeruginosa MH602 at 500 uM after 8 hrs relative to control; settings: MH602, 8 h, read-out: GI
Escherichia coli [6] = test: Growth inhibition of Escherichia coli MT102 at 500 uM after 24 hrs relative to control; settings: MT102, 24 h, read-out: GI
Pseudomonas aeruginosa [7] = test: Growth inhibition of Pseudomonas aeruginosa MH602 at 2 mM after 8 hrs relative to control; settings: MH602, 8 h, read-out: GI
Pseudomonas aeruginosa [8] = test: Inhibition of LasR-dependent quorum sensing activity in Pseudomonas aeruginosa MH602 harboring GFP-fused […] LasB promoter assessed as inhibition of 3-oxo-dodecanoyl HSL-induced GFP expression at 500 uM measured after 8 hrs by fluorescence assay relative to control
Escherichia coli [9] = test: Growth inhibition of Escherichia coli MT102 at 1 mM after 8 hrs relative to control; settings: MT102, 8 h, read-out: GI
Escherichia coli [10] = test: Inhibition of LuxR-dependent quorum sensing activity in Escherichia coli MT102 harboring pJBA132 assessed as inhibition of OHHL-induced GFP expression at 1 mM measured after 24 hrs by fluorescence assay relative to control
Escherichia coli [11] = test: Growth inhibition of Escherichia coli MT102 at 500 uM after 8 hrs relative to control; settings: MT102, 8 h, read-out: GI
Escherichia coli [12] = test: Growth inhibition of Escherichia coli MT102 at 2 mM after 24 hrs relative to control; settings: MT102, 24 h, read-out: GI
Pseudomonas aeruginosa [13] = test: Growth inhibition of Pseudomonas aeruginosa MH602 at 1 mM after 24 hrs relative to control; settings: MH602, 24 h, read-out: GI
Pseudomonas aeruginosa [14] = test: Growth inhibition of Pseudomonas aeruginosa MH602 at 1 mM after 8 hrs relative to control; settings: MH602, 8 h, read-out: GI
Pseudomonas aeruginosa [15] = test: Growth inhibition of Pseudomonas aeruginosa PA14 at 2 mM after 24 hrs relative to control; settings: 2000 µM
Escherichia coli [16] = test: Growth inhibition of Escherichia coli MT102 at 1 mM after 24 hrs relative to control; settings: MT102, 24 h, read-out: GI
Escherichia coli [17] = test: Inhibition of LuxR-dependent quorum sensing activity in Escherichia coli MT102 harboring pJBA132 assessed as inhibition of OHHL-induced GFP expression at 2 mM measured after 24 hrs by fluorescence assay relative to control
Escherichia coli [18] = test: Growth inhibition of Escherichia coli MT102 at 2 mM after 8 hrs relative to control; settings: MT102, 8 h, read-out: GI
Pseudomonas aeruginosa [19] = test: Inhibition of LasR-dependent quorum sensing activity in Pseudomonas aeruginosa MH602 harboring GFP-fused […] LasB promoter assessed as inhibition of 3-oxo-dodecanoyl HSL-induced GFP expression at 1 mM measured after 8 hrs by fluorescence assay relative to control
[20] = system: Pseudomonas aeruginosa PA14; test: Inhibition of quorum sensing-regulated biofilm formation in Pseudomonas aeruginosa PA14 at 2 mM after overnight incubation by crystal violet staining based assay relative to control
Escherichia coli [21] = test: Inhibition of LuxR-dependent quorum sensing activity in Escherichia coli MT102 harboring pJBA132 assessed as inhibition of OHHL-induced GFP expression at 2 mM measured after 8 hrs by fluorescence assay relative to control
[22] = system: Pseudomonas aeruginosa PA14; test: Inhibition of quorum sensing-regulated pyocyanin production in Pseudomonas aeruginosa PA14 at 2 mM after 24 hrs relative to control
Pseudomonas aeruginosa [23] = test: Inhibition of LasR-dependent quorum sensing activity in Pseudomonas aeruginosa MH602 harboring GFP-fused […] LasB promoter assessed as inhibition of 3-oxo-dodecanoyl HSL-induced GFP expression at 2 mM measured after 24 hrs by fluorescence assay relative to control
Escherichia coli [24] = test: Inhibition of LuxR-dependent quorum sensing activity in Escherichia coli MT102 harboring pJBA132 assessed as inhibition of OHHL-induced GFP expression at 500 uM measured after 8 hrs by fluorescence assay relative to control

SMILES	inhibition (Pseudomonas aeruginosa [1])	inhibition at 2000 µM (Pseudomonas aeruginosa [2])	inhibition (Escherichia coli [3])	inhibition at 500 µM (Pseudomonas aeruginosa [4])	inhibition at 500 µM (Pseudomonas aeruginosa [5])	inhibition at 500 µM (Escherichia coli [6])	inhibition at 2000 µM (Pseudomonas aeruginosa [7])	inhibition (Pseudomonas aeruginosa [8])	inhibition at 1000 µM (Escherichia coli [9])	inhibition (Escherichia coli [10])	inhibition at 500 µM (Escherichia coli [11])	inhibition at 2000 µM (Escherichia coli [12])	inhibition at 1000 µM (Pseudomonas aeruginosa [13])	inhibition at 1000 µM (Pseudomonas aeruginosa [14])	growth inhibition (GI) (Pseudomonas aeruginosa [15])	inhibition at 1000 µM (Escherichia coli [16])	inhibition (Escherichia coli [17])	inhibition at 2000 µM (Escherichia coli [18])	inhibition (Pseudomonas aeruginosa [19])	inhibition [20]	also measured
CCCCCC(=O)N[C@@H]1[C@@H](O)[C@H](O)[C@@H](CO)O[C@H]1O	10%	3.1%	10.7%	0%	7.1%	0%	19%	12.9%	11.7%	15.8%	0%	0%	19.2%	10.5%	Non-Toxic	8.4%	42.7%	24.6%	13.1%	9%	–
CCCC(=O)CC(=O)N[C@H]1[C@H](OC(C)=O)O[C@H](COC(C)=O)[C@@H](OC(C)=O)[C@@H]1OC(C)=O	64.5%	4.6%	85.4%	6.3%	5.7%	12.7%	74.9%	5.3%	44.1%	20.7%	22.2%	65.1%	25.9%	66.8%	Non-Toxic	49.2%	40.9%	50.3%	59.6%	38.1%	inhibition (Escherichia coli [21]): 88.1%; inhibition [22]: 3.5%
CCCCCCCC(=O)N[C@@H]1[C@@H](O)[C@H](O)[C@@H](CO)O[C@H]1O	23.2%	65.4%	–	0%	3.4%	0%	21.3%	17.5%	10.6%	48.2%	0%	0%	0%	0%	Non-Toxic	4.4%	45.7%	30.7%	12.2%	14%	inhibition (Pseudomonas aeruginosa [23]): 21.3%; inhibition (Escherichia coli [21]): 16.7%; inhibition [22]: 11.7%
CCCCCCCCCCCC(=O)N[C@@H]1[C@@H](O)[C@H](O)[C@@H](CO)O[C@H]1O	–	28.7%	4.6%	19.4%	25.5%	14.3%	32%	12.6%	46.2%	–	23.2%	11.7%	37.2%	30.9%	Non-Toxic	14.3%	–	28.6%	–	2.3%	inhibition [22]: 20.7%
CC(=O)OC[C@H]1O[C@@H](OC(C)=O)[C@H](NC(=O)CC(=O)CCCc2ccccc2)[C@@H](OC(C)=O)[C@@H]1OC(C)=O	24.4%	0%	26%	0%	0%	0%	24.8%	6.5%	2.6%	43.4%	3.3%	5.1%	19.6%	11.7%	Non-Toxic	4.9%	34.2%	21.8%	–	–	inhibition (Escherichia coli [21]): 12.8%
CCCCCCCC(=O)N[C@H]1[C@H](OC(C)=O)O[C@H](COC(C)=O)[C@@H](OC(C)=O)[C@@H]1OC(C)=O	–	2.8%	2.3%	0%	2.7%	6.2%	33.1%	14.4%	0%	–	23.7%	21.4%	0%	2.5%	Non-Toxic	9.6%	14%	14.9%	8.5%	21.1%	inhibition (Pseudomonas aeruginosa [23]): 26.1%; inhibition (Escherichia coli [21]): 36%
CC(=O)OC[C@H]1O[C@@H](OC(C)=O)[C@H](NC(=O)CCCc2ccccc2)[C@@H](OC(C)=O)[C@@H]1OC(C)=O	5.2%	3.3%	18.1%	0%	7.3%	5.2%	37.2%	7.3%	64.7%	21.1%	15.1%	26.7%	25.9%	30.9%	Non-Toxic	19.7%	43.8%	93.2%	4.9%	–	–
CCCCCCCCCC(=O)N[C@@H]1[C@@H](O)[C@H](O)[C@@H](CO)O[C@H]1O	11.5%	0%	16.3%	16.4%	7.8%	15.3%	17.6%	15.7%	45%	8.5%	0%	12.3%	30.2%	20.4%	Non-Toxic	20%	23.3%	38.2%	15.6%	–	inhibition [22]: 13.3%
CC(=O)OC[C@H]1O[C@@H](OC(C)=O)[C@H](NC(=O)CCc2c[nH]c3ccccc23)[C@@H](OC(C)=O)[C@@H]1OC(C)=O	53.8%	0%	2.3%	3.5%	2.3%	2.6%	0%	9.3%	0%	–	0%	0%	3.5%	0%	Non-Toxic	0%	28.5%	0%	32.6%	–	inhibition (Escherichia coli [24]): 13.5%; inhibition (Pseudomonas aeruginosa [23]): 7.4%; inhibition (Escherichia coli [21]): 65.5%
CCCCCCCCCCCC(=O)N[C@H]1[C@H](OC(C)=O)O[C@H](COC(C)=O)[C@@H](OC(C)=O)[C@@H]1OC(C)=O	–	0%	–	0%	0%	12.2%	1.2%	12.8%	0%	31.5%	0%	15%	0%	0%	Non-Toxic	13.4%	59.7%	21.8%	–	3.5%	inhibition (Pseudomonas aeruginosa [23]): 35.3%; inhibition (Escherichia coli [21]): 1.8%; inhibition [22]: 19.7%
